Assay results published in patent US20240317735A1, “HYDROISOQUINOLINE OR HYDRONAPHTHYRIDINE COMPOUNDS FOR THE TREATMENT OF AUTOIMMUNE DISEASE” (Hoffmann-La Roche Inc., priority 2020, published 2024).

These molecules were tested against T1, human TLR7 (Homo sapiens, UniProt Q9NYK1) (assay: HEK293-Blue-hTLR-7 cells assay (SEAP reporter, R848 stimulation)). Details: HEK293-Blue-hTLR7 cells, R848, 20 hrs; read-out: HEK/hTLR7 IC50.
T1 construct: host or cells: HEK293 (HEK-Blue hTLR7)
T1 sequence (Q9NYK1 27-1049): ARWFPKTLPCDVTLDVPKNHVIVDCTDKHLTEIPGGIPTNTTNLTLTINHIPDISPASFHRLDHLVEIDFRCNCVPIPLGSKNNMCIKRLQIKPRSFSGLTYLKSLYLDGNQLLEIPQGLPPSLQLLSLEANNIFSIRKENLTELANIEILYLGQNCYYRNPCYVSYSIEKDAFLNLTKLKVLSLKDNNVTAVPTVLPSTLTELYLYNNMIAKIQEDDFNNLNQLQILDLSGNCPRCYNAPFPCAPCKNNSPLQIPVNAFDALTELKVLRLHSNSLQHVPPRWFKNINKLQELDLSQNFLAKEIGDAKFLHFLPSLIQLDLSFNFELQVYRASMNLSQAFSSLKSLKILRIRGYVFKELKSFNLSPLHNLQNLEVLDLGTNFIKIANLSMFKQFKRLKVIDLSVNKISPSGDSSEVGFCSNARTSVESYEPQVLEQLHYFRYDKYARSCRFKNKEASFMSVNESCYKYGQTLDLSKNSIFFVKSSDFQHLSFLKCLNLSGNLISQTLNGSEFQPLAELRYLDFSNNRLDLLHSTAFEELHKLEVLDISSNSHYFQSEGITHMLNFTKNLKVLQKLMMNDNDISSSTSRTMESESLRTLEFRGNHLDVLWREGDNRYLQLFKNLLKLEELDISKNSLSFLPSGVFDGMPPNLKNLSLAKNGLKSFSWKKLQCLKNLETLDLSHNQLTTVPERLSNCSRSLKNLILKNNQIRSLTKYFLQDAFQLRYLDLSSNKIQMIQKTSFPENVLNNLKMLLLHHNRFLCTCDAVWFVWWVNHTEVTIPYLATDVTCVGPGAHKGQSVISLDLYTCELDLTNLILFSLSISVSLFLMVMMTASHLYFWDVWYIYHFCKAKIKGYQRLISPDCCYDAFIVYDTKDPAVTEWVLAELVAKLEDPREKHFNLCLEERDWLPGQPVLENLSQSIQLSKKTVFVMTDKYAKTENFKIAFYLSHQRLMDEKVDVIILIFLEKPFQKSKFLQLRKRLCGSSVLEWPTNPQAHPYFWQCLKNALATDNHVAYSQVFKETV
Format: cell-based
Procedure: The following tests were carried out in order to determine the activity of the compounds of formula (I) and (Ia) in HEK293-Blue-hTLR-7/8/9 cells assay.
A stable HEK293-Blue-hTLR-7 cell line was purchased from InvivoGen (Cat. #: hkb-htlr7, San Diego, California, USA). These cells were originally designed for studying the stimulation of human TLR7 by monitoring the activation of NF-κB. A SEAP (secreted embryonic alkaline phosphatase) reporter gene was placed under the control of the IFN-β minimal promoter fused to five NF-κB and AP-1-binding sites. The SEAP was induced by activating NF-κB and AP-1 via stimulating HEK-Blue hTLR7 cells with TLR7 ligands. Therefore the reporter expression w % as declined by TLR7 antagonist under the stimulation of a ligand, such as R848 (Resiquimod), for incubation of 20 hrs. The cell culture supernatant SEAP reporter activity was determined using QUANTI-Blue™ kit (Cat. #: rep-qb1, Invivogen, San Diego, Ca, USA) at a wavelength of 640 nm, a detection medium that turns purple or blue in the presence of alkaline phosphatase.
HEK293-Blue-hTLR7 cells were incubated at a density of 250,000˜450,000 cells/mL in a volume of 170 μL in a 96-well plate in Dulbecco's Modified Eagle's medium (DMEM) containing 4.5 g/L glucose, 50 U/mL penicillin, […], […] Normocin, 2 mM L-glutamine, 10% (v/v) heat-inactivated fetal bovine serum with addition of 20 μL test compound in a serial dilution in the presence of final DMSO at 1% and 10 μL of 20 uM R848 in above DMEM, perform incubation under 37° C. in a C02 incubator for 20 hrs. Then 20 μL of the supernatant from each well was incubated with 180 μL Quanti-blue substrate solution at 37° C. for 2 hrs and the absorbance was read at 620˜655 nm using a spectrophotometer. The signaling pathway that TLR7 activation leads to downstream NF-κB activation has been widely accepted, and therefore similar reporter assay was modified for evaluating TLR7 antagonist.
C[C@H]1CN(c2ccnc3c2cnn3C)Cc2ccc(N3CC4CNC[C@H]4C3=O)cc21 (relative stereo) [Example 17, cis-5-[(4R)-4-methyl-2-(1-methylpyrazolo[3,4-b]pyridin-4-yl)-3,4-dihydro-1H-isoquinolin-6-yl]-1,2,3,3a,6,6a-hexahydropyrrolo[3,4-c]pyrrol-4-one] was tested, and the IC50 was 8 nM. For C[C@H]1CN(c2ccnc3c2cnn3C)Cc2ccc(N3C[C@]4(CCNC4)CC3=O)cc21 (single isomer, unassigned) [Example 54], the IC50 was 53 nM. For C[C@H]1CN(c2ccnc3c2cnn3C)Cc2ccc(N3C[C@H]4CCNC[C@H]4C3=O)cc21 (single isomer, unassigned) [Example 56], the IC50 was 9 nM. In the case of C[C@H]1CN(c2ccnc3c2cnn3C)Cc2ccc(N3C[C@@H]4CCNC[C@@H]4C3=O)cc21 (single isomer, unassigned) [Example 57], the IC50 is reported as 8 nM. For CC1CN(c2ccnc3c2cnn3C)Cc2ccc(N3CCC4(CCNCC4)CC3)cc21 (stereo not drawn) [Example 4, 3-[4-methyl-2-(1-methylpyrazolo[3,4-b]pyridin-4-yl)-3,4-dihydro-1H-isoquinolin-6-yl]-3,9-diazaspiro[5.5]undecane], the IC50 was 4 nM. Molecule Cc1cc(N2Cc3ccc(N4CCC5(CCNCC5)CC4)cc3C(C)C2)c2cnn(C)c2n1 (stereo not drawn) [Example 5, 3-[2-(1,6-dimethylpyrazolo[3,4-b]pyridin-4-yl)-4-methyl-3,4-dihydro-1H-isoquinolin-6-yl]-3,9-diazaspiro[5.5]undecane] has an IC50 of 3 nM. Cn1ncc2c(N3Cc4ccc(N5CCC6(CCNCC6)CC5)cc4C(C)(C)C3)ccnc21 [Example 6, 3-[4,4-dimethyl-2-(1-methylpyrazolo[3,4-b]pyridin-4-yl)-1,3-dihydroisoquinolin-6-yl]-3,9-diazaspiro[5.5]undecane] was tested, and the IC50 was 26 nM. In the case of C[C@H]1CN(c2ccnc3c2cnn3C)Cc2ccc(N3CCC(N4CCNCC4)CC3)cc21 [Example 10, (4R)-4-methyl-2-(1-methylpyrazolo[3,4-b]pyridin-4-yl)-6-(4-piperazin-1-yl-1-piperidyl)-3,4-dihydro-1H-isoquinoline], the IC50 is reported as 1 nM. CO[C@@H]1CN(C2CCN(c3ccc4c(c3)[C@@H](C)CN(c3ccnc5c3cnn5C)C4)CC2)C[C@H]1N [Example 11, (3R,4R)-4-methoxy-1-[1-[(4R)-4-methyl-2-(1-methylpyrazolo[3,4-b]pyridin-4-yl)-3,4-dihydro-1H-isoquinolin-6-yl]-4-piperidyl]pyrrolidin-3-amine] showed an IC50 of 2 nM. Molecule C[C@H]1CN(c2ccnc3c2cnn3C)Cc2ccc(N3CCN(C(=O)C4CNCCO4)CC3)cc21 (stereo partly drawn) [Example 12, morpholin-2-yl-[4-[(4R)-4-methyl-2-(1-methylpyrazolo[3,4-b]pyridin-4-yl)-3,4-dihydro-1H-isoquinolin-6-yl]piperazin-1-yl]methanone] has an IC50 of 9 nM. C[C@H]1CN(c2ccnc3c2cnn3C)Cc2ccc(N3C[C@H]4CNCCN4C3=O)cc21 [Example 24, (8aR)-2-[(4R)-4-methyl-2-(1-methylpyrazolo[3,4-b]pyridin-4-yl)-3,4-dihydro-1H-isoquinolin-6-yl]-1,5,6,7,8,8a-hexahydroimidazo[1,5-a]pyrazin-3-one] showed an IC50 of 10 nM. In the case of C[C@H]1CN(c2ccnc3c2cnn3C)Cc2ccc(N3C[C@@H]4CNCCN4C3=O)cc21 [Example 25, (8aS)-2-[(4R)-4-methyl-2-(1-methylpyrazolo[3,4-b]pyridin-4-yl)-3,4-dihydro-1H-isoquinolin-6-yl]-1,5,6,7,8,8a-hexahydroimidazo[1,5-a]pyrazin-3-one], the IC50 is reported as 15 nM. In the case of Cc1cc(N2Cc3ccc(OC[C@H]4CNCCN4)cc3[C@@H](C)C2)c2cnn(C)c2n1 [Example 30, (4R)-2-(1,6-dimethylpyrazolo[3,4-b]pyridin-4-yl)-4-methyl-6-[[(2R)-piperazin-2-yl]methoxy]-3,4-dihydro-1H-isoquinoline], the IC50 is reported as 37 nM. C[C@H]1CN(c2ccnc3c2cnn3C)Cc2ccc(N3CCN(S(=O)(=O)C4CCNC4)CC3)cc21 (stereo partly drawn) [Example 33, (4R)-4-methyl-2-(1-methylpyrazolo[3,4-b]pyridin-4-yl)-6-(4-pyrrolidin-3-ylsulfonylpiperazin-1-yl)-3,4-dihydro-1H-isoquinoline] was tested, and the IC50 was 6 nM. For C[C@H]1CN(c2ccnc3c2cnn3C)Cc2ccc(OC[C@@H]3CNCCN3C)cc21 [Example 44, (4R)-4-methyl-2-(1-methylpyrazolo[3,4-b]pyridin-4-yl)-6-[[(2S)-1-methylpiperazin-2-yl]methoxy]-3,4-dihydro-1H-isoquinoline], the IC50 was 15 nM. For C[C@H]1CN(c2ccnc3c2cnn3C)Cc2ccc(N3CCNC(CO)C3)cc21 (stereo partly drawn) [Example 49, [4-[(4R)-4-methyl-2-(1-methylpyrazolo[3,4-b]pyridin-4-yl)-3,4-dihydro-1H-isoquinolin-6-yl]piperazin-2-yl]methanol], the IC50 was 5 nM. Cc1cc(N2Cc3ccc(N4CCC(N(C)C)CC4)nc3[C@@H](C)C2)c2cnn(C)c2n1 [Example 60, N,N-dimethyl-1-[(8S)-6-(1,6-dimethylpyrazolo[3,4-b]pyridin-4-yl)-8-methyl-7,8-dihydro-5H-1,6-naphthyridin-2-yl]piperidin-4-amine] was tested, and the IC50 was 3 nM. Cc1cc(N2Cc3ccc(N4CCC(O)(CN(C)C)CC4)nc3[C@@H](C)C2)c2cnn(C)c2n1 [Example 61, 4-[(dimethylamino)methyl]-1-[(8S)-6-(1,6-dimethylpyrazolo[3,4-b]pyridin-4-yl)-8-methyl-7,8-dihydro-5H-1,6-naphthyridin-2-yl]piperidin-4-ol] was tested, and the IC50 was 3 nM. For CO[C@H]1CN(c2ccc3c(n2)[C@@H](C)CN(c2cc(C)nc4c2cnn4C)C3)CC[C@@H]1N [Example 65, (3S,4S)-3-methoxy-1-[(8S)-6-(1,6-dimethylpyrazolo[3,4-b]pyridin-4-yl)-8-methyl-7,8-dihydro-5H-1,6-naphthyridin-2-yl]piperidin-4-amine], the IC50 was 6 nM. Cc1cc(N2Cc3cnc(N4CCNC5(CC5)C4)cc3[C@@H](C)C2)c2cnn(C)c2n1 [Example 75, (4R)-6-(4,7-diazaspiro[2.5]octan-7-yl)-2-(1,6-dimethylpyrazolo[3,4-b]pyridin-4-yl)-4-methyl-3,4-dihydro-1H-2,7-naphthyridine] showed an IC50 of 10 nM. For COC[C@H]1CN(c2cc3c(cn2)CN(c2cc(C)nc4c2cnn4C)C[C@@H]3C)CCN1 [Example 81, (4R)-2-(1,6-dimethylpyrazolo[3,4-b]pyridin-4-yl)-4-methyl-6-[(3R)-3-(methoxymethyl)piperazin-1-yl]-3,4-dihydro-1H-2,7-naphthyridine], the IC50 was 41 nM.
